# Source: patent US20040146987A1, “Rapidly degraded reporter fusion proteins” (Promega Corporation, priority 2002, published 2004)
# Where two headings read alike, the source gives them in different places.
# Legend:
# [1] = tested on: COS-7 cells; experiment: cycloheximide treatment of transiently transfected COS-7 cells, luminescence of accumulated luciferase; format: cell-based, African green monkey; settings: cycloheximide 100 μg/ml
# Protocol: For transfection, cells were grown to confluence in T25 flasks (Falkon, Becton Dickinson, Oxford). Transfection was conducted in 1 ml of serum-free RPMI-1640 that was mixed with 8 μg of plasmid DNA and 20 μl of Lipofectamine™2000 (GIBCO BRL). CHO cells were incubated in the transfection media for 30 minutes, HeLa cells for 1 hour, and COS-7 cells for 5 hours. Following incubation, cells were trypsinized with Trypsin-EDTA (GIBCO BRL) and collected by centrifugation. […]
# To determine firefly luciferase activity, cells were lysed by freeze/thawing. Lysate from each well (100 μl) was transferred into corresponding wells of opaque 96 well plates (Falkon, Becton Dickinson, Oxford) containing 100 μl of Bright-Glo™ Luciferase Assay System (Promega) and luminescence intensity was determined using MLX Microtiter Plate Luminometer (Dynex). The activity of Renilla luciferase was measured by mixing 40 μl samples with 100 μl of assay reagent from the Renilla Luciferase Assay System (Promega).
# The half-life of the protein encoded by plasmid pUbiq(Y)Luc 19 was determined in mammalian cells and compared to the half-lives of wild-type luciferase as well as fusion proteins comprising firefly luciferase and a mutant form of the C-ODC (Luc-PEST10). […]
# [2] = literature; cited from earlier work
# [3] = tested on: S. cerevisiae; settings: yeast / S. cerevisiae, cited from earlier work
# [4] = tested on: E. coli; settings: cited from earlier work
# [5] = tested on: protein synthesis; experiment: inhibition of protein synthesis by cycloheximide; format: cell-based; settings: 100 μg/ml
# Protocol: The half-life of the protein encoded by plasmid pUbiq(Y)Luc 19 was determined in mammalian cells and compared to the half-lives of wild-type luciferase as well as fusion proteins comprising firefly luciferase and a mutant form of the C-ODC (Luc-PEST10). This was done by evaluating the luminescence emitted by cells that were transiently transfected with either plasmid pUbiq(Y)Luc19 or pwtLuc1 or pLuc-PEST 10, respectively, and then, for different periods of time, were exposed to the protein synthesis inhibitor cycloheximide. […] The estimated half-life of Ubiq(Y)Luc in these cells is about 170-200 minutes, which is far longer than the half-lives reported by Varshavsky (1992) for P-galactosidase containing a tyrosine residue at the N-terminus both in E. coli and S. cerevisiae (2 and 10 minutes, respectively).
compound,measurement,setting,value
wild-type luciferase: wild-type firefly luciferase encoded by plasmid pwtLuc1,half-life,[1],about 7 hours
same,half-life,[2],about 3.68 hours
β-galactosidase,half-life,[3],20 h
same,half-life,[3]; listed as wild-type P-galactosidase,> 20 h
same,half-life,[4],more than 10 hours
C[C@@H]1C[C@@H]([C@H](O)CC2CC(=O)NC(=O)C2)C(=O)[C@@H](C)C1 [cycloheximide],time to complete inhibition of protein synthesis,[5],≤ 7.5 min
